Source: US20150344466A1 (SUMITOMO CHEMICAL COMPANY, LIMITED, priority 2013, published 2015)

Tested on: Culex pipiens pallens
Experiment: Knockdown spray test on adult Culex pipiens pallens (Test Example 4)
Format: in vivo
Settings: topical, 0.25 h, active ingredient 0.1% w/v, 0.5 ml sprayed, within 15 minutes, read-out: knockdown rate of the test insects within 15 minutes
Method: Ten adult Culex pipiens pallens were released in a polyethylene cup (bottom diameter: 10.6 cm), and the cup was covered with a 16-mesh nylon gauze. The polyethylene cup was placed on the bottom of a test chamber (bottom: 46 cm×46 cm, height: 70 cm). From a height of 30 cm above the upper surface of the polyethylene cup, 0.5 ml of the test drug solution was sprayed using a spray gun (a spraying pressure of 0.4 kg/cm^2). Immediately after spraying, the cup was taken out from the test chamber, and after 2 minutes, 5 minutes and 15 minutes, the number of knocked-down insects was counted to obtain a knockdown rate. The knockdown rate was calculated by the following equation.
Knockdown Rate (%)=(Number of Knocked-down Insects/Number of Tested Insects)×100

Structure (SMILES)	pest or weed control at 0.1 % strength
O=C(NCC1CCOC1)c1cc(COCCCCCc2ccccc2)on1 (centres unmarked) [(137), N-(tetrahydrofuran-3-ylmethyl)-5-(5-phenylpentyloxymethyl)isoxazole-3-carboxylic acid-3-carboxamide]	≥ 80%
O=C(NCC1CCOC1)c1cc(COCc2cc(F)ccc2F)on1 (centres unmarked) [(259), N-(tetrahydrofuran-3-ylmethyl)-5-(2,5-difluorobenzyloxymethyl)isoxazole-3-carboxamide]	≥ 80%
O=C(NCC1CCOC1)c1cc(COCc2ccc(-c3ccccc3)s2)on1 (centres unmarked) [(241), N-(tetrahydrofuran-3-ylmethyl)-5-(5-phenyl-2-thienylmethoxymethyl)isoxazole-3-carboxamide]	≥ 80%
O=C(NCC1CCOCC1)c1cc(COCc2ccsc2)on1 [(108), N-(tetrahydropyran-4-ylmethyl)-5-(thiophen-3-ylmethoxymethyl)isoxazole-3-carboxamide]	≥ 80%
COc1ccc2cc(CCCc3cc(C(=O)NCC4CCOC4)no3)ccc2c1 (centres unmarked) [(247), N-(tetrahydrofuran-3-ylmethyl)-5-[3-(6-methoxy-2-naphthyl)propyl]isoxazole-3-carboxamide]	≥ 80%
O=C(NCC1CCOC1)c1cc(CCCc2cccc(F)c2)on1 (centres unmarked) [(251), N-(tetrahydrofuran-3-ylmethyl)-5-[3-(3-fluorophenyl)propyl]isoxazole-3-carboxamide]	≥ 80%
O=C(NCC1CCOCC1)c1cc(COCc2ccc3c(c2)OC(F)(F)O3)on1 [(237), N-(tetrahydropyran-4-ylmethyl)-5-[5-(2,2-difluoro-1,3-benzodioxolanyl)methoxymethyl]isoxazole-3-carboxamide]	≥ 80%
C#Cc1c(C(=O)NCC2CCOC2)noc1COCc1ccc2ccccc2c1 (centres unmarked) [(250), N-(tetrahydrofuran-3-ylmethyl)-5-(2-naphthylmethoxymethyl)-4-ethynylisoxazole-3-carboxamide]	≥ 80%
O=C(NCC1CCOC1)c1cc(CSCc2ccccc2)on1 (centres unmarked) [(254), N-(tetrahydrofuran-3-ylmethyl)-5-benzylthiomethylisoxazole-3-carboxamide]	≥ 80%
O=C(NCC1CCOC1)c1cc(CCCCCCOc2ccccc2)on1 (centres unmarked) [(148), N-(tetrahydrofuran-3-ylmethyl)-5-(6-phenoxyhexyl)isoxazole-3-carboxamide]	≥ 80%
O=C(NCC1CCOC1)c1cc(Cc2cc(Cl)cc(Cl)c2)on1 (centres unmarked) [(307), N-(tetrahydrofuran-3-ylmethyl)-5-(3,5-dichlorobenzyl)isoxazole-3-carboxamide]	≥ 80%
O=C(NC1CSC1)c1cc(COCc2ccccc2)on1 [(40), N-(thietan-3-yl)-5-benzyloxymethylisoxazole-3-carboxamide]	≥ 80%
O=C(NCC1COCCO1)c1cc(CCCc2ccc3c(c2)OC(F)(F)O3)on1 (centres unmarked) [(232), N-(1,4-dioxan-2-ylmethyl)-5-[3-(5-(2,2-difluoro-1,3-benzodioxolanyl))propyl]isoxazole-3-carboxamide]	≥ 80%
O=C(NCC1CCOC1)c1ncc(COCc2ccccc2)s1 (centres unmarked) [(48), N-(tetrahydrofuran-3-ylmethyl)-5-benzyloxymethythiazole-2-carboxamide]	≥ 80%
O=C(NCC1CCOC1)c1noc(COCc2ccccc2F)c1I (centres unmarked) [(297), N-(tetrahydrofuran-3-ylmethyl)-5-(2-fluorobenzyloxymethyl)-4-iodoisoxazole-3-carboxamide]	≥ 80%
O=C(NCC1COCO1)c1cc(CCCc2ccc3ccccc3c2)on1 (centres unmarked) [(229), N-(1,3-dioxolan-4-ylmethyl)-5-[3-(2-naphthyl)propyl]isoxazole-3-carboxamide]	≥ 80%
O=C(NCC1CCOC1)c1cc(Cc2ccccc2F)on1 (centres unmarked) [(320), N-(tetrahydrofuran-3-ylmethyl)-5-(2-fluorobenzyl)isoxazole-3-carboxamide]	≥ 80%
CC(OCc1cc(C(=O)NCC2CCOC2)no1)c1ccccc1 (centres unmarked) [(125), N-(tetrahydrofuran-3-ylmethyl)-5-[(1-phenylethyl)oxymethyl]isoxazole-3-carboxamide]	≥ 80%
O=C(NCC1CCOCC1)c1cc(COc2cccc(SC(F)(F)F)c2)on1 [(203), N-(tetrahydropyran-4-ylmethyl)-5-(3-trifluoromethylthiophenoxymethyl)isoxazole-3-carboxamide]	≥ 80%
Cc1c(F)c(F)c(COCc2cc(C(=O)NCC3CCOC3)no2)c(F)c1F (centres unmarked) [(273), N-(tetrahydrofuran-3-ylmethyl)-5-(4-methyl-2,3,5,6-tetrafluorobenzyloxymethyl)isoxazole-3-carboxamide]	≥ 80%
O=C(NCC1CCOC1)c1cc(COCc2ccc3c(c2)OC(F)(F)O3)on1 (centres unmarked) [(236), N-(tetrahydrofuran-3-ylmethyl)-5-[5-(2,2-difluoro-1,3-benzodioxolanyl)methoxymethyl]isoxazole-3-carboxamide]	≥ 80%

Structure (SMILES)	pest or weed control at 0.1 % strength
CC1(CNC(=O)c2cc(COCc3ccc4c(c3)OC(F)(F)O4)on2)COC1 [(238), N-(3-methyloxetan-3-ylmethyl)-5-[5-(2,2-difluoro-1,3-benzodioxolanyl)methoxymethyl]isoxazole-3-carboxamide]	≥ 80%
COc1ccccc1COCc1cc(C(=O)NCC2CCOC2)no1 (centres unmarked) [(227), N-(tetrahydrofuran-3-ylmethyl)-5-(2-methoxybenzyloxymethyl) isoxazole-3-carboxamide]	≥ 80%
O=C(NCC1CCOC1)c1cc(CCCc2ccc3c(c2)OC(F)(F)O3)on1 (centres unmarked) [(231), N-(tetrahydrofuran-3-ylmethyl)-5-[5-(2,2-difluoro-1,3-benzodioxolanyl)propyl]isoxazole-3-carboxamide]	≥ 80%
O=C(NCC1CCOC1)c1noc(COCc2ccc3ccccc3c2)c1I (centres unmarked) [(295), N-(tetrahydrofuran-3-ylmethyl)-5-(2-naphthylmethoxymethyl)-4-iodoisoxazole-3-carboxamide]	≥ 80%
O=C(NCC1CCOC1)c1cc(COCc2cc(Br)cc(Br)c2)on1 (centres unmarked) [(262), N-(tetrahydrofuran-3-ylmethyl)-5-(3,5-dibromobenzyloxymethyl)isoxazole-3-carboxamide]	≥ 80%
O=C(NCC1CCOCC1)c1cc(COCCCCc2ccccc2)on1 [(136), N-(tetrahydropyran-4-ylmethyl)-5-(4-phenylbutoxymethyl)isoxazole-3-carboxamide]	≥ 80%
O=C(NCC1CCOCC1)c1cc(COc2ccc(F)cc2)on1 [(185)]	≥ 80%
O=C(NCC1CCOC1)c1ncc(COc2ccccc2)s1 (centres unmarked) [(47), N-(tetrahydrofuran-3-ylmethyl)-5-phenoxymethythiazole-2-carboxamide]	≥ 80%
O=C(NCC1CCOC1)c1cc(COCc2ccc(Oc3ccccc3)cc2)on1 (centres unmarked) [(117), N-(tetrahydrofuran-3-ylmethyl)-5-(4-phenoxybenzyloxymethyl) isoxazole-3-carboxamide]	≥ 80%
O=C(NCC1COCCO1)c1cc(COCc2ccc3ccccc3c2)on1 (centres unmarked) [(233), N-(1,4-dioxan-2-ylmethyl)-5-(2-naphthylmethoxymethyl)isoxazole-3-carboxamide]	≥ 80%
O=C(NCC1CCOC1)c1cc(CCCOc2ccccc2)on1 (centres unmarked) [(145), N-(tetrahydrofuran-3-ylmethyl)-5-(3-phenoxypropyl)isoxazole-3-carboxamide]	≥ 80%
O=C(NCC1CCOC1)c1cc(Cc2cc3ccccc3s2)on1 (centres unmarked) [(161), N-(tetrahydrofuran-3-ylmethyl)-5-(benzo[b]thiophen-2-ylmethy)isoxazole-3-carboxamide]	≥ 80%
O=C(NCC1CCOCC1)c1cc(COc2ccc(SC(F)(F)F)cc2)on1 [(193), N-(tetrahydropyran-4-ylmethyl)-5-(4-trifluoromethylthiophenoxymethyl)isoxazole-3-carboxamide]	≥ 80%
C#Cc1c(C(=O)NCC2CCOC2)noc1COCc1ccccc1F (centres unmarked) [(249), N-(tetrahydrofuran-3-ylmethyl)-5-(2-fluorobenzyloxymethyl)-4-ethynylisoxazole-3-carboxamide]	≥ 80%
O=C(NCC1CCOCC1)c1cc(COCCCCCc2ccccc2)on1 [(138), N-(tetrahydropyran-4-ylmethyl)-5-(5-phenylpentyloymethyl)isoxazole-3-carboxamide]	≥ 80%
O=C(NCC1CCOC1)c1cc(Cc2ccccc2Cl)on1 (centres unmarked) [(323), N-(tetrahydrofuran-3-ylmethyl)-5-(2-chlorobenzyl)isoxazole-3-carboxamide]	≥ 80%
O=C(NCC1CCOC1)c1cc(CCCBr)on1 (centres unmarked) [(248), N-(tetrahydrofuran-3-ylmethyl)-5-(3-bromopropyl)isoxazole-3-carboxamide]	≥ 80%
O=C(NCC1CCOC1)c1noc(COCc2ccc3ccccc3c2)c1CO (centres unmarked) [(209), N-(tetrahydrofuran-3-ylmethyl)-4-hydroxymethyl-5-(2-naphthylmethoxymethyl)isoxazole-3-carboxamide]	≥ 80%
O=C(NCC1CCOC1)c1noc(COCc2ccccc2F)c1Br (centres unmarked) [(296), N-(tetrahydrofuran-3-ylmethyl)-5-(2-fluorobenzyloxymethyl)-4-bromoisoxazole-3-carboxamide]	≥ 80%
O=C(NCC1CCOC1)c1noc(COCc2ccc3ccccc3c2)c1Br (centres unmarked) [(256), N-(tetrahydrofuran-3-ylmethyl)-5-(2-naphthylmethoxymethyl)-4-bromoisoxazole-3-carboxamide]	≥ 80%
